In paper PMC7270110, “Labeled oxytocin administered via the intranasal route reaches the brain in rhesus macaques” (Nature Communications, 2020):

Experiment: Brain tissue concentration of endogenous OT (d0OT) by LC-MS/MS (terminal experiment)
Format: in vivo, rhesus macaques (Macaca mulatta)
Settings: for BRAIN OT concentration (endogenous): LC-MS/MS; for Concentrations of endogenous brain oxytocin (OT): molarity calculated for extracellular fluid volume
Method: Monkeys were divided into three groups, each with two monkeys; each group received the following in a terminal study at the 5th week: Group 1 (Monkeys ID# 1 and ID# 5) received 40 IU of d5OT IN, Group 2 received 80 IU of d5OT IN (Monkeys ID# 2 and ID# 4) and Group 3 received 80 IU of d5OT IV (Monkeys ID# 3 and ID# 6). Animals were perfused on average, 140 ± 7 (mean ± SD) min after d5OT administration (range = 135–149 min) (Table 4). Plasma and CSF were drawn just before administration of d5OT, at the midpoint between d5OT administration and perfusion (~60 min post-d5OT administration), and just before perfusion.
Brain tissue distribution of d5OT, as well as the endogenous concentrations of OT (d0OT), were measured in the following 12 brain regions: cerebellum, brainstem, striatum, amygdala, thalamus, visual cortex, insular cortex, hypothalamus, hippocampus, mPFC (Brodmann areas 32,25,24), dPFC (Brodmann areas 46,9,10), and OFC (Brodmann areas 14,13,12) (Tables 1, 2 and 3).
Brain tissue sample preparation: Samples (~1.5 mg per sample) were individually weighed and placed into 12 mm × 75 mm glass tubes containing 1.5 ml ice-cold 1 M acetic acid and 30 µl of OT-d10 internal standard. Tissues were homogenized on ice and the resulting homogenates were poured into individual 15 ml polystyrene tubes. The original glass tube was rinsed with 1 ml acetonitrile, and this rinse was added to the appropriate 15 ml polystyrene tube containing the homogenate. After all homogenizations were complete, 3 ml acetonitrile was added to each tube and extraction proceeded, as described for the plasma and CSF samples.
LC–MS/MS instrument parameters: Microtiter plates were prepared, as described above, and loaded onto a SIL-30ACMP autosampler set at 4 °C (Shimadzu). Forty microliters of each standard, QC or sample were injected onto an ACE Excel 2 C18-PFP 50 mm × 2.1 mm column (Advanced Chromatography Technologies, LTD, Aberdeen, Scotland) at 50 °C using reversed-phase chromatography. Mobile phase A was 0.1% formic acid in water and mobile phase B was 0.1% formic acid in ACN. The LC time gradient was created using two Nexera LC-30AD pumps (Shimadzu) running at 0.5 ml/min. Chromatography for serum and CSF samples began at 10% B and ended at 16% B at 3.6 min. One minute at 60% B was then required to wash the column, and the pumps re-equilibrated at 10% B for an additional 1.7 min (total run time ~6 min). Outside of the 1.55–3.55 min window during which OT eluted, a divert valve sent the LC effluent to waste.
Heated electrospray […] in positive mode, with scheduled multiple reaction monitoring (MRM) on a Shimadzu LCMS-8050, was used for detection of OT. The interface temperature was 270 °C and heat block temperature was 170 °C. Gas was supplied by a Peak Genius 1051 nitrogen and air generator (Peak Scientific, Inchinnan, UK). Nitrogen gas was used for nebulizing (1 L/min) and drying (8.2 L/min), while air was used for heating (7.8 L/min). A capillary B needle was used in the interface. Needle protrusion was set to 1.25 mm and probe distance was set to 1.0 mm; both were determined empirically. Argon (Airgas, Radnor, PA) was used for the collision-induced dissociation at 330 kPa. The MS/MS conditions for OT were optimized using the automated MRM optimization procedure in LabSolutions software (Shimadzu). We collected two MRM transitions each, for d0OT (1007.40 > 723.40 and 1007.40 > 285.30), d5OT (1012.00 > 723.40 and 1012.00 > 290.35), and d10OT (1017.70 > 723.35 and 1017.70 > 295.40); the first transition listed in each case was used for quantitation, while the second was used as a reference ion. Retention times for d0OT, d5OT, and d10OT were 3.290, 3.270, and 3.253 min, respectively.
The sensitivities of each assay within the method were determined by the lowest and highest concentration calibrators in the calibration curve. The lower limit of quantitation (LLOQ) for d0OT was 10 pg/ml (4 pg/col); the LLOQ for d5OT was 100 pg/ml (40 pg/col). […]

BRAIN OT concentration (endogenous) (Insular Cortex, after d5OT 40 IU IN, monkey #5 (F), perfused 138 min post-dose): 0.30 pg/mg
BRAIN OT concentration (endogenous) (Insular Cortex, after d5OT 80 IU IN, monkey #4 (M), perfused 135 min post-dose): 0.06 pg/mg
BRAIN OT concentration (endogenous) (Insular Cortex, after d5OT 80 IU IV, monkey #3 (F), perfused 149 min post-dose): 0.16 pg/mg
Concentrations of endogenous brain oxytocin (OT) (OFC, 40 IN, monkey #1 (F)): 1e-09 M
Concentrations of endogenous brain oxytocin (OT) (OFC, 40 IN, monkey #5 (F)): 5e-09 M
Concentrations of endogenous brain oxytocin (OT) (OFC, 80 IN, monkey #2 (M)): 2.2e-09 M
Concentrations of endogenous brain oxytocin (OT) (OFC, 80 IN, monkey #4 (M)): 9e-09 M
Concentrations of endogenous brain oxytocin (OT) (OFC, 80 IV, monkey #3 (F)): 2e-09 M
BRAIN OT concentration (endogenous) (OFC, after d5OT 40 IU IN, monkey #1 (F), perfused 148 min post-dose): 0.22 pg/mg
BRAIN OT concentration (endogenous) (OFC, after d5OT 40 IU IN, monkey #5 (F), perfused 138 min post-dose): 0.96 pg/mg
BRAIN OT concentration (endogenous) (OFC, after d5OT 80 IU IN, monkey #2 (M), perfused 136 min post-dose): 0.40 pg/mg
BRAIN OT concentration (endogenous) (OFC, after d5OT 80 IU IN, monkey #4 (M), perfused 135 min post-dose): 1.59 pg/mg
BRAIN OT concentration (endogenous) (OFC, after d5OT 80 IU IV, monkey #3 (F), perfused 149 min post-dose): 0.44 pg/mg
Concentrations of endogenous brain oxytocin (OT) (Striatum, 40 IN, monkey #1 (F)): 3e-09 M
Concentrations of endogenous brain oxytocin (OT) (Striatum, 40 IN, monkey #5 (F)): 7e-09 M
Concentrations of endogenous brain oxytocin (OT) (Striatum, 80 IN, monkey #2 (M)): 9e-09 M
Concentrations of endogenous brain oxytocin (OT) (Striatum, 80 IN, monkey #4 (M)): 9.7e-08 M
Concentrations of endogenous brain oxytocin (OT) (Striatum, 80 IV, monkey #3 (F)): 7.9e-08 M
Concentrations of endogenous brain oxytocin (OT) (Striatum, 80 IV, monkey #6 (F)): 8.6e-08 M
BRAIN OT concentration (endogenous) (Striatum, after d5OT 40 IU IN, monkey #1 (F), perfused 148 min post-dose): 0.63 pg/mg
BRAIN OT concentration (endogenous) (Striatum, after d5OT 40 IU IN, monkey #5 (F), perfused 138 min post-dose): 1.20 pg/mg
BRAIN OT concentration (endogenous) (Striatum, after d5OT 80 IU IN, monkey #2 (M), perfused 136 min post-dose): 1.58 pg/mg
BRAIN OT concentration (endogenous) (Striatum, after d5OT 80 IU IN, monkey #4 (M), perfused 135 min post-dose): 17.81 pg/mg
BRAIN OT concentration (endogenous) (Striatum, after d5OT 80 IU IV, monkey #3 (F), perfused 149 min post-dose): 14.45 pg/mg
BRAIN OT concentration (endogenous) (Striatum, after d5OT 80 IU IV, monkey #6 (F), perfused 135 min post-dose): 15.82 pg/mg
Concentrations of endogenous brain oxytocin (OT) (Thalamus, 40 IN, monkey #1 (F)): 2.4e-08 M
Concentrations of endogenous brain oxytocin (OT) (Thalamus, 40 IN, monkey #5 (F)): 4e-08 M
Concentrations of endogenous brain oxytocin (OT) (Thalamus, 80 IN, monkey #2 (M)): 6e-09 M
Concentrations of endogenous brain oxytocin (OT) (Thalamus, 80 IN, monkey #4 (M)): 1.7e-08 M
Concentrations of endogenous brain oxytocin (OT) (Thalamus, 80 IV, monkey #3 (F)): 2.1e-08 M
Concentrations of endogenous brain oxytocin (OT) (Thalamus, 80 IV, monkey #6 (F)): 1.55e-07 M
BRAIN OT concentration (endogenous) (Thalamus, after d5OT 40 IU IN, monkey #1 (F), perfused 148 min post-dose): 4.39 pg/mg
BRAIN OT concentration (endogenous) (Thalamus, after d5OT 40 IU IN, monkey #5 (F), perfused 138 min post-dose): 7.31 pg/mg
BRAIN OT concentration (endogenous) (Thalamus, after d5OT 80 IU IN, monkey #2 (M), perfused 136 min post-dose): 1.02 pg/mg
BRAIN OT concentration (endogenous) (Thalamus, after d5OT 80 IU IN, monkey #4 (M), perfused 135 min post-dose): 3.09 pg/mg
BRAIN OT concentration (endogenous) (Thalamus, after d5OT 80 IU IV, monkey #3 (F), perfused 149 min post-dose): 3.85 pg/mg
BRAIN OT concentration (endogenous) (Thalamus, after d5OT 80 IU IV, monkey #6 (F), perfused 135 min post-dose): 28.34 pg/mg
Concentrations of endogenous brain oxytocin (OT) (dPFC, 40 IN, monkey #5 (F)): 1e-09 M
Concentrations of endogenous brain oxytocin (OT) (dPFC, 80 IN, monkey #4 (M)): 1e-09 M
Concentrations of endogenous brain oxytocin (OT) (dPFC, 80 IV, monkey #3 (F)): 2e-09 M
BRAIN OT concentration (endogenous) (dPFC, after d5OT 40 IU IN, monkey #5 (F), perfused 138 min post-dose): 0.16 pg/mg
BRAIN OT concentration (endogenous) (dPFC, after d5OT 80 IU IN, monkey #4 (M), perfused 135 min post-dose): 0.20 pg/mg
BRAIN OT concentration (endogenous) (dPFC, after d5OT 80 IU IV, monkey #3 (F), perfused 149 min post-dose): 0.27 pg/mg
BRAIN OT concentration (endogenous) (mPFC, after d5OT 40 IU IN, monkey #1 (F), perfused 148 min post-dose): 0.86 pg/mg
BRAIN OT concentration (endogenous) (mPFC, after d5OT 40 IU IN, monkey #5 (F), perfused 138 min post-dose): 0.88 pg/mg
BRAIN OT concentration (endogenous) (mPFC, after d5OT 80 IU IN, monkey #4 (M), perfused 135 min post-dose): 0.45 pg/mg
SMILES: CC[C@H](C)[C@@H]1NC(=O)[C@H](Cc2ccc(O)cc2)NC(=O)[C@@H](N)CSSC[C@@H](C(=O)N2CCC[C@H]2C(=O)N[C@@H](CC(C)C)C(=O)NCC(N)=O)NC(=O)[C@H](CC(N)=O)NC(=O)[C@H](CCC(N)=O)NC1=O [OT, oxytocin]
